The values below come from patent US10213494B2, “Treatment of synucleinopathies” (The Brigham and Women's Hospital, Inc., priority 2007, dated 2019).

Assay [1] relates to α-synuclein protein in MES23.5 cells. Put plainly: Western blot of α-synuclein in co-transfected MES23.5 cells. As to conditions: co-expression with αS for 24 hours; syn-1, 7071AP and hSA-2 antibodies. The class given is cell-based, human. The protocol: Cells were transfected with 0, 0.25, 0.5, 1, 5, and 10 μg (per 10 cm dish) of plasmid. 24 hours later, cells were washed with Tris-buffered saline and lysed in 140 mM NaCl, 50 mM Tris-Hcl, pH 8.0, 1 mM EDTA, 0.5% Triton-X100, and 1× protease inhibitors. Lysates were centrifuged at 100,000×g for 30 min at 4° C.; the top 2/3 of supernatants were removed and frozen in siliconized tubes at −80° C. Samples were run on SDS/PAGE, using 1 mM DTT as the reducing agent. Expression of the αS protein was confirmed at 24 hours post-transfection by Western blotting, where cell lysates were probed with a monoclonal antibody against αS protein (syn-1 antibody, BD Transduction Labs).
MES23.5 cells were transfected with 0.5 μg αS-encoding SNCA cDNA per 10 cm dish plus either 1.25, 2.5 or 5 μg (low, medium, or high) GBA-encoding cDNA in the absence or presence of 5 μg of Prosaposin-encoding cDNA. All arms of the experiment were balanced up to a total of 10.5 μg cDNA per 10 cm dish using empty vector cDNA. The GBA- and Prosaposin-encoding cDNA plasmids under a CMV promoter, as well as the pCMV-XL5 empty vector were purchased from OriGene Technologies, Inc (clones had been fully sequence-verified after isolation and a maxiprep). 24 hours later, cells were lysed and probed for GBA and αS protein levels. The upper panel in of FIG. 2B3 is a representation of a Western Blot indicating expression of GBA protein in the absence and presence of co-transfected prosaposin. GBA was probed using the monoclonal antibody 8E4. GBA over-expression occurred in a slightly gene-dosage dependent way in the absence of prosaposin. In the presence of prosaposin over-expression, the GBA signal itself was decreased. […]
In general terms: In western blotting, separated proteins are transferred to a membrane and probed.

The test system of assay [2] is α-synuclein protein (wild-type, human) in MES23.5 cells. Put plainly: Sandwich ELISA of intracellular α-synuclein in MES23.5 cells co-transfected with wild-type human SNCA cDNA and lysosomal enzyme cDNA. The following applies: for intracellular α-synuclein level, % of control levels: n=2. The class given is cell-based. As to the method: Sera from six rabbits were raised and affinity-purified at Open Biosystems, Inc. (openbiosystems.com) against recombinant, full-length human αS. Recombinant αS had been HPLC- and MS-characterized and subjected to amino acid composition and protein concentration analyses. For ELISA, 384-well MaxiSorp plates (Nunc, Inc) were coated with 50 μl/well capturing polyclonal Ab (hSA-2) diluted in coating buffer (NaHCO3 with 0.2% NaN3, pH 9.6). Following washes with PBS/0.05% Tween-20 (PBS-T), plates were blocked for 2 hours at 37° C. in blocking buffer (1.125% fish skin gelatin; PBS-T). After 4 washes, samples were loaded and incubated at 4° C. for 12 hours. Biotinylated Syn-1 mAb (as the assaying Ab) was generated using 200 μg Sulfo-NHS-LC Biotin (Pierce), diluted in blocking buffer and added to the plate for 2 hours at 37° C. Following 4 washes, ExtrAvidin phosphatase (Sigma) diluted in blocking buffer was applied for 1 hr at 37° C. Color development was carried out by using Fast-p-Nitrophenyl Phosphate (Sigma) and monitored kinetically at OD 405 nm every 5 minutes for up to 60 minutes.
To optimize a ‘DNA: LIPOFECTAMINE® 2000’ ratio with low cell toxicity, MES23.5 cells were transfected with either 0.25, 0.5 or 1 μg αS-encoding, wild-type, human SNCA cDNA plus empty vector cDNA up to a total of 5.5 μg DNA per 10 cm dish. 24 hours after transfection, cell lysates were harvested as described above. For serial dilutions of cell lysates, blocking buffer containing 0.5% lysate from vector-transfected wells was used as diluent, which was also used to create the blank and the corresponding standard curve of recombinant human αS. Saturation kinetics were examined for identification of time point(s) where standards and sample dilutions were in the log phase.
MES cells were transfected with 0.5 μg per 10 cm dish of αS-encoding SNCA cDNA-carrying plasmid, plus 5 μg per 10 cm dish of wild-type or mutant, human GBA-encoding plasmid. The GBA variants used were wild type, N370S, D409H, L444P, E235A, and E340A. These 5 GBA mutants were created by site-directed mutagenesis, using the Quickchange® kit (Stratagene), and sequence-verified. The N370S, D409H and L444P are known to occur (in the homozygous or compound heterozygous state) in Gaucher disease in the heterozygous state in Parkinson Disease patients and/or patients with dementia with Lewy bodies. The E235A and E340A mutant GBA proteins are not known to occur in people.
24 hours after transfection, MES cells were lysed as described above and all lysates were analyzed by ELISA. […] This is in contrast to the result observed in Example 5 above. The observed discrepancy can reflect the differences in total DNA transfected in the two paradigms (FIG. 2B; FIG. 2C versus FIG. 4), thereby leading to changes in the DNA:LIPOFECTAMINE® 2000 ratio, and in the role of co-expressed prosaposin (saposin C). It is therefore conceivable that wild-type GBA can have variable effects on αS levels in these MES23.5 cells, depending on the rate of αS import into lysosomes and the composition as well as activation state of more than one lysosomal enzyme.
MES23.5 cells were transfected with 0.5 μg per 10 cm dish of an αS-encoding, wild-type, human SNCA cDNA-carrying plasmid (referred to as MES-hSNCA WT cells in the Western blot shown in FIG. 6), plus either 1.25, 2.5 or 5 μg per 10 cm dish of a human Cathepsin D-encoding CTSD cDNA plasmid, which was purchased from OriGene Technologies, Inc., and was under the control of a CMV promoter. The Cathepsin D clone was fully sequence-verified after isolation and maxiprep. Each transfection arm was balanced with empty vector DNA up to a total of 5.5 μg DNA per 10 cm dish. 24 hours after transfection, cells were lysed, and the resulting lysates were analyzed by the sandwich ELISA described herein. […]

Where only a bound is given, the exact number is not on record here.

Consider “cathepsin D: human lysosomal aspartyl protease expressed from CTSD cDNA plasmid under a CMV promoter”, for which the “generation of lower or higher molecular weight αS species” value in assay [1] was “did not lead to the generation of any visible lower or higher molecular weight species”. The “intracellular α-synuclein level, % of control levels” value in assay [2] (cathepsin D cDNA 1.25 μg/10 cm dish, 24 hours) is reported as 68+/−17.7%; in assay [2] (cathepsin D cDNA 2.5 μg/10 cm dish, 24 hours) it was 53+/−16.8%. For the same substance, the “intracellular total α-synuclein level, % of control levels” value in assay [2] (cathepsin D cDNA 5 μg/10 cm dish, 24 hours, n=11) is 25.3+/−7.0%. In addition, in assay [2] (cathepsin D co-expression), the “αS-lowering effect, percent of total intracellular αS concentration detectable” value is listed as not above 75%.
